From ChEMBL document CHEMBL1157881, “Optimization of arylindenopyrimidines as potent adenosine A(2A)/A(1) antagonists” (Bioorg Med Chem Lett, 2010)
The source made the active and inactive calls. The calls are words filed in the database; no cut-off is given here.

Key:
[1] = target: Adenosine receptor A2a (Homo sapiens, UniProt P29274); test: Antagonistic activity at adenosine A2A receptor; type: functional
[2] = target: T1, Adenosine receptor A1 (Homo sapiens, UniProt P30542); test: Antagonistic activity at adenosine A1 receptor; type: functional
T1 sequence (P30542 whole entry): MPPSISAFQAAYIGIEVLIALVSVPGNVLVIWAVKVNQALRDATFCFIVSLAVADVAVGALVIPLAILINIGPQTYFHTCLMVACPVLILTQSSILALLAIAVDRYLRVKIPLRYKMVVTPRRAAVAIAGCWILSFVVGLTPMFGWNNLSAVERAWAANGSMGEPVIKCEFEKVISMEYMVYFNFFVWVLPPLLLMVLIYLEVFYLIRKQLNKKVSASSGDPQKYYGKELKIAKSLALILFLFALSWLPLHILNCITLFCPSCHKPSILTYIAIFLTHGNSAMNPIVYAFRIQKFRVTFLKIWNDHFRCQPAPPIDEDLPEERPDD

[3] = test system: Mus musculus; test: Antagonist activity against haloperidol-induced catalepsy in po dosed mouse; type: functional
[4] = Cmax in rat brain; type: ADME, organism-based
[5] = test system: Mus musculus; test: Antagonist activity against haloperidol-induced catalepsy in mouse at 3 mg/kg, po; type: functional, organism-based; set-up: dose 3 mg/kg
[6] = test system: Mus musculus; test: Antagonist activity against haloperidol-induced catalepsy in mouse at 10 mg/kg, po; type: functional, organism-based; set-up: dose 10 mg/kg

Sequence of Adenosine receptor A2a (P29274 whole entry): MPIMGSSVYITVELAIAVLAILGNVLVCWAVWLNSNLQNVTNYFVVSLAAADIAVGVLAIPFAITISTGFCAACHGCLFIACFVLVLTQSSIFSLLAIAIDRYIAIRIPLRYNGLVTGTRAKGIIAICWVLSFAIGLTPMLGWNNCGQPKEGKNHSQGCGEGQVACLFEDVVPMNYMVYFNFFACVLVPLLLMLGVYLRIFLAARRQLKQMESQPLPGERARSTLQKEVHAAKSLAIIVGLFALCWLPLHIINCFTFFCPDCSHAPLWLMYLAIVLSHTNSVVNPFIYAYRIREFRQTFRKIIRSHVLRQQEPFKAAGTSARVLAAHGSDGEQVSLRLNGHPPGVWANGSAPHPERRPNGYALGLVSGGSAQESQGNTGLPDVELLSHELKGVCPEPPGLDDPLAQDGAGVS

| Ki [1] [nM] | Ki [2] [nM] | Cmax [4] [µM] | SMILES | ED50 [3] [mg/kg] | Activity [5] | Activity [6] |
| --- | --- | --- | --- | --- | --- | --- |
| 12.4 | 208 |  | CN(C)CCN(C)C(=O)c1ccc2c(c1)-c1nc(N)nc(-c3ccccc3)c1C2=O | < 1 |  |  |
|  | 48.2 | 4.1 | Nc1nc(-c2ccccc2)c2c(n1)-c1cc(OCCN3CCOCC3)ccc1C2=O | < 1 |  |  |
| 7.9 | 103 |  | CCN(CC)CCOc1ccc2c(c1)-c1nc(N)nc(-c3ccccc3)c1C2=O | < 1 |  |  |
|  |  | 0.6 | CN1CCN(C(=O)c2ccc3c(c2)-c2nc(N)nc(-c4ccccc4)c2C3=O)CC1 | 0.4 |  |  |
| 12.5 | 142 |  | CCN1CCC(Nc2ccc3c(c2)-c2nc(N)nc(-c4ccccc4)c2C3=O)CC1 |  | inactive |  |
| 0.9 | 12.7 |  | Nc1nc(-c2ccccc2)c2c(n1)-c1cc(NCCc3ccncc3)ccc1C2=O |  |  |  |
|  |  | 3.6 | Nc1nc(-c2ccccc2)c2c(n1)-c1cc(CN3CCCC3)ccc1C2=O |  |  |  |
| 7.8 | 94.7 |  | CCN(CC)CCN(C)C(=O)c1ccc2c(c1)-c1nc(N)nc(-c3ccccc3)c1C2=O | < 1 |  |  |
| 32.5 | 12.3 |  | Nc1nc(-c2ccccc2)c2c(n1)-c1cc(C(=O)N3CCNCC3)ccc1C2=O |  |  |  |
| 18.6 | 258 |  | CN1CCC(N(C)C(=O)c2ccc3c(c2)-c2nc(N)nc(-c4ccccc4)c2C3=O)CC1 | < 1 |  |  |
| 17.3 | 33.3 |  | CN(C)CCOc1ccc2c(c1)-c1nc(N)nc(-c3ccccc3)c1C2=O | < 3 |  |  |
| 35.3 | 194 |  | Nc1nc(-c2ccccc2)c2c(n1)-c1cc(OCCN3CCCCC3)ccc1C2=O |  |  |  |
| 13.5 | 45.2 |  | CCN(CC)CCNC(=O)c1ccc2c(c1)-c1nc(N)nc(-c3ccccc3)c1C2=O |  |  |  |
| 14.9 | 67.4 |  | CCN1CCN(C(=O)c2ccc3c(c2)-c2nc(N)nc(-c4ccccc4)c2C3=O)CC1 | < 1 |  |  |
| 0.9 | 15.4 |  | Nc1nc(-c2ccccc2)c2c(n1)-c1cc(NCCc3ccccn3)ccc1C2=O |  |  |  |
| 11.4 | 256 |  | CCN1CCN(c2ccc3c(c2)-c2nc(N)nc(-c4ccccc4)c2C3=O)CC1 | < 1 |  |  |
| 4.7 | 57.3 |  | CN(C)CCN(C)c1ccc2c(c1)-c1nc(N)nc(-c3ccccc3)c1C2=O |  |  |  |
| 13.7 | 187 |  | CC(C)N(CCOc1ccc2c(c1)-c1nc(N)nc(-c3ccccc3)c1C2=O)C(C)C | < 1 |  |  |
| 20.7 | 84.1 |  | CC(C)N1CCN(C(=O)c2ccc3c(c2)-c2nc(N)nc(-c4ccccc4)c2C3=O)CC1 |  |  |  |
| 37.3 | 37.4 |  | CN(C)CCOc1ccc2c(c1)-c1nc(N)nc(-c3ccc(F)cc3)c1C2=O |  |  |  |

Second part, the compound before the results:

| SMILES | Ki [1] [nM] | Ki [2] [nM] | Cmax [4] [µM] | ED50 [3] [mg/kg] | Activity [5] | Activity [6] |
| --- | --- | --- | --- | --- | --- | --- |
| CC(C)N(CCOc1ccc2c(c1)-c1nc(N)nc(-c3ccc(F)cc3)c1C2=O)C(C)C | 76.6 | 468 |  |  |  |  |
| Nc1nc(-c2ccccc2)c2c(n1)-c1cc(NCCN3CCOCC3)ccc1C2=O | 4.4 | 32.7 |  | < 1 |  |  |
| CCN1CCC(N(C)c2ccc3c(c2)-c2nc(N)nc(-c4ccccc4)c2C3=O)CC1 | 4.9 | 16.4 |  |  |  |  |
| Nc1nc(-c2ccc(F)cc2)c2c(n1)-c1cc(OCCN3CCCC3)ccc1C2=O | 117 | 600 |  | 0.8 |  |  |
| CCN(CC)CCOc1ccc2c(c1)-c1nc(N)nc(-c3ccc(F)cc3)c1C2=O | 50.6 | 414 |  |  |  |  |
| CN1CCN(C(=O)c2ccc3c(c2)-c2nc(N)nc(-c4ccc(F)cc4)c2C3=O)CC1 | 11.1 | 101 |  | < 1 |  |  |
| Nc1nc(-c2ccccc2)c2c(n1)-c1cc(NCCN3CCS(=O)(=O)CC3)ccc1C2=O | 3.1 | 46.7 |  |  | inactive |  |
| Nc1nc(-c2ccccc2)c2c(n1)-c1cc(OCCN3CCCC3)ccc1C2=O | 19.3 | 159 |  | < 1 |  |  |
| Nc1nc(-c2ccccc2)c2c(n1)-c1cc(N3CCN(CC4CC4)CC3)ccc1C2=O | 23.2 | 253 |  |  |  |  |
| CC(C)N1CCC(NC(=O)c2ccc3c(c2)-c2nc(N)nc(-c4ccccc4)c2C3=O)CC1 | 16.8 | 119 |  | 0.4 |  |  |
| Nc1nc(-c2ccc(F)cc2)c2c(n1)-c1cc(OCCN3C4CCC3CC4)ccc1C2=O | 35.1 | 337 |  |  |  | inactive |
| Nc1nc(-c2ccccc2)c2c(n1)-c1cc(C(=O)NCCN3CCOCC3)ccc1C2=O | 28.4 | 215 |  |  |  |  |
| CN1CCCN(c2ccc3c(c2)-c2nc(N)nc(-c4ccccc4)c2C3=O)CC1 | 10 | 137 |  |  |  |  |
| CCN1CCN(C(=O)c2ccc3c(c2)-c2nc(N)nc(-c4ccc(F)cc4)c2C3=O)CC1 | 32.1 | 191 |  |  |  |  |
| CN1CCN(c2ccc3c(c2)-c2nc(N)nc(-c4ccccc4)c2C3=O)CC1 | 2.7 | 35.6 |  | < 1 |  |  |
| Nc1nc(-c2ccccc2)c2c(n1)-c1cc(N3CCOCC3)ccc1C2=O | 2.9 | 32.4 |  |  |  |  |
| Nc1nc(-c2ccc(F)cc2)c2c(n1)-c1cc(OCCN3CCOCC3)ccc1C2=O | 18.1 | 203 |  | < 1 |  |  |
